Molecular target: T1, Recombinant active human SCCE (Homo sapiens, UniProt P49862)
T1 construct: made in house; host or cells: murine C127 cells transfected with a BPV vector (murine MT promoter)
Assay: SCCE Inhibitor Test (chromogenic substrate S-2586, absorbance at 405 nm)
Format: biochemical
Details: for IC50: 10 min preincubation, 1 mM S-2586, 60 min, 37° C, pH 7.2; for remaining activity at 10 µM / remaining activity at 1 µM / remaining activity at 5 µM: 1 h; for remaining activity at 1 µM: 1 μM compound; for remaining activity at 5 µM: 5 μM compound
Protocol: Recombinant active human SCCE was produced essentially as described in WO 95/00651. The cDNA encoding human SCCE was introduced into a BPV vector under the control of the murine MT promoter and expressed in transfected C127 cells. The produced SCCE was purified and activated using immobilized bovine trypsin.
SCCE activity was determined using the chromogenic substrate S-2586 (MeO-Suc-Arg-Pro-Tyr-pNA) (Chromogenix, Mölndal, Sweden) by measurement of the change in absorbance at 405 nm essentially as described in WO 95/00651. Inhibitors were dissolved in DMSO and added to the reaction mixture (10 mM sodium phosphate, pH 7.2, 0.5 M NaCl, 2.5 μg/ml SCCE) at appropriate concentrations followed by incubation for 10 min before the start of the enzymatic reaction by subsequent addition of the substrate S-2586 to a final concentration of 1 mM. The change in absorbance at 405 nm after 60 min was recorded and used as a measure of SCCE activity. The assay temperature was 37° C. […] The IC50 values were used to identify compounds as SCCE inhibitors of the invention.

T1 sequence (P49862 30-253): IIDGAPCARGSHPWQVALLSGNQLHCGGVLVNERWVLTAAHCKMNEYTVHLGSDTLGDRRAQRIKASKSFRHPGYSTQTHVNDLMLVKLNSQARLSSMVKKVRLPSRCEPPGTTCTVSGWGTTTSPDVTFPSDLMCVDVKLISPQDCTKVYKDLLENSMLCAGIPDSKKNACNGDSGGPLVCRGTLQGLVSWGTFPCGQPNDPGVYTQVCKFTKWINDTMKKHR

SMILES	IC50	remaining activity at 10 µM (10 μM compound)	remaining activity at 1 µM	remaining activity at 5 µM	% SCCE activity (10 μM compound)
O=c1oc(-c2ccccc2)nc2ccccc12 [Compound I-1, 2-Phenyl-benzo[d][1,3]oxazin-4-one]	2000 nM	27%			
O=c1oc(-c2ccc([N+](=O)[O-])cc2Cl)nc2cc(Cl)ccc12 [Compound I-2, 7-Chloro-2-(2-chloro-4-nitro-phenyl)-benzo[d][1,3]oxazin-4-one]	100 nM		15%	0%	
O=c1oc(-c2cccs2)nc2cc(Cl)ccc12 [Compound I-4, 7-Chloro-2-thiophen-2-yl-benzo[d][1,3]oxazin-4-one]	250 nM		22%	5%	
COc1cc2nc(-c3ccc([N+](=O)[O-])cc3Cl)oc(=O)c2cc1OC [Compound I-5, 2-(2-Chloro-4-nitro-phenyl)-6,7-dimethoxy-benzo[d][1,3]oxazin-4-one]	500 nM	9%			
O=c1oc(-c2cc([N+](=O)[O-])ccc2Cl)nc2ccccc12 [Compound I-6, 2-(2-Chloro-5-nitro-phenyl)-benzo[d][1,3]oxazin-4-one]	500 nM	22%			
CN(C)c1nc2cc(Cl)cc(Cl)c2c(=O)o1 [Compound I-7]	2000 nM				7%
O=c1oc(-c2ccncc2)nc2ccccc12 [Compound I-8, 2-Pyridin-4-yl-benzo[d][1,3]oxazin-4-one]	5000 nM	24%			
O=c1oc(-c2cccs2)nc2ccccc12 [Compound I-9, 2-Thiophen-2-yl-benzo[d][1,3]oxazin-4-one]	5000 nM	23%			
O=c1oc(-c2ccccc2O)nc2ccccc12 [Compound I-10, 2-(2-Hydroxy-phenyl)-benzo[d][1,3]oxazin-4-one]	5000 nM	32%	71%	47%	
COc1cc2nc(-c3ccccc3F)oc(=O)c2cc1OC [Compound I-11, 2-(2-Fluoro-phenyl)-6,7-dimethoxy-benzo[d][1,3]oxazin-4-one]	700 nM		39%	8%	
CCc1ccc(-c2nc3cc(Cl)ccc3c(=O)o2)cc1 [Compound I-12, 7-Chloro-2-(4-ethyl-phenyl)benzo[d][1,3]oxazin-4-one]	2000 nM		33%	15%	
Cc1cc(-c2nc3cc(Cl)ccc3c(=O)o2)ccc1[N+](=O)[O-] [Compound I-13, 7-Chloro-2-(3-methyl-4-nitro-phenyl)-benzo[d][1,3]oxazin-4-one]	2000 nM		56%	36%	
COc1cc2nc(-c3ccc(NC(C)=O)cc3)oc(=O)c2cc1OC [Compound I-14, N-[4-(6,7-Dimethoxy-4-oxo-4H-benzo[d][1,3]oxazin-2-yl)-phenyl]-acetamide]	5000 nM	52%			
CC(=O)Oc1ccc(-c2nc3ccccc3c(=O)o2)cc1 [Compound I-15, Acetic acid 4-(4-oxo-4H-benzo[d][1,3]oxazin-2-yl)-phenyl ester]	5000 nM		52%	22%	
COc1cc2nc(-c3ccccc3Cl)oc(=O)c2cc1OC [Compound I-16, 2-(2-Chloro-phenyl)-6,7-dimethoxy-benzo[d][1,3]oxazin-4-one]	170 nM	3%	15%		
O=c1nc(-c2cccs2)oc2ccc(Cl)cc12 [Compound I-17, 6-Chloro-2-thiophen-2-yl-benzo[e][1,3]oxazin-4-one]	320 nM		18%	4%	
O=c1nc(-c2ccco2)oc2ccc(Cl)cc12 [Compound I-18, 6-Chloro-2-furan-2-yl-benzo[e][1,3]oxazin-4-one]	600 nM		26%	7%	
O=c1nc(-c2ccccc2Cl)oc2ccccc12 [Compound I-19, 2-(2-Chlorophenyl)-benzo[e][1,3]oxazin-4-one]	4000 nM		76%	44%	
O=c1nc(-c2cccs2)oc2ccccc12 [Compound I-20, 2-Thiophen-2-yl-benzo[e][1,3]oxazin-4-one]			54%	16%	
O=c1nc(-c2ccco2)oc2ccccc12 [Compound I-21, 2-Furan-2-yl-benzo[e][1,3]oxazin-4-one]			47%	16%	

Next, values leading:

IC50	remaining activity at 10 µM (10 μM compound)	remaining activity at 1 µM	remaining activity at 5 µM	% SCCE activity (10 μM compound)	SMILES
70 nM		0%	0%		CCc1cc2c(=O)oc(-c3ccccc3F)nc2s1 [II-1, 6-Ethyl-2-(2-fluoro-phenyl)-thieno[2,3-d][1,3]oxazin-4-one]
50 nM	4%				Cc1cc2c(=O)oc(-c3cccc4ccccc34)nc2s1 [II-2, 6-Methyl-2-naphtalen-1-yl-thieno[2,3-d][1,3]oxazin-4-one]
150 nM		3%	0%		CCc1cc2c(=O)oc(-c3ccccc3C)nc2s1 [II-3, 6-Ethyl-2-o-tolyl-thieno[2,3-d][1,3]oxazin-4-one]
300 nM		15%	8%		CCc1cc2c(=O)oc(-c3ccc(F)cc3)nc2s1 [II-4, 6-Ethyl-2-(4-fluoro-phenyl)-thieno[2,3-d][1,3]oxazin-4-one]
500 nM	1%				O=c1oc(-c2ccccc2Cl)nc2ccsc12 [II-5, 2-(2-chloro-phenyl)-4H-thieno[3,2-d][1,3]oxazin-4-one]
1000 nM	9%				O=c1oc(-c2ccccc2)nc2ccsc12 [II-6, 2-phenyl-4H-thieno[3,2-d][1,3]oxazin-4-one]
1500 nM		50%	13%		Cc1sc2nc(-c3ccco3)oc(=O)c2c1C [II-7, 2-Furan-2-yl-5,6-dimethyl-thieno[2,3-d][1,3]oxazin-4-one]
1000 nM	10%				O=c1oc(-c2ccc(F)cc2)nc2ccsc12 [II-8, 2-(4-fluoro-phenyl)-4H-thieno[3,2-d][1,3]oxazin-4-one]
1000 nM		58%	37%		CCc1cc2c(=O)oc(-c3ccc(Br)cc3)nc2s1 [II-9, 2-(4-Bromo-phenyl)-6-ethyl-thieno[2,3-d][1,3]oxazin-4-one]
20 nM		10%	2%		O=c1oc(-c2ccccc2Cl)nc2sc3c(c12)CCC3 [II-10, 6-(2-Chloro-phenyl)-2,3-dihydro-1H-5-oxa-8-thia-7-aza-cyclopenta[a]indene-4-one]
200 nM		8%	8%		O=c1oc(-c2ccco2)nc2sc3c(c12)CCC3 [II-11, 6-Furan-2-yl-2,3-dihydro-1H-5-oxa-8-thia-7-aza-cyclopenta[a]inden-4-one]
200 nM		19%	16%		O=c1oc(-c2ccccc2)nc2sc3c(c12)CCC3 [II-12, 6-Phenyl-2,3-dihydro-1H-5-oxa-8-thia-7-aza-cyclopenta[a]inden-4-one]

From patent US7872052B2, “Use of heterocyclic compounds as SCCE inhibitors” (Arexis AB, priority 2003, dated 2011)
